# Measurements: paper PMC11855478, “Bicyclic N,S-Acetals Containing Fused Cysteine-Amide System as New Heterocyclic Class Targeting Human Farnesyltransferase (FTase-h)” (International Journal of Molecular Sciences, 2025)
# Assays:
# [1] = molecular target: human farnesyltransferase (FTase) (Homo sapiens, UniProt P49354+P49356); experiment: FTase inhibitory assay (fluorescence, Dansyl-GCVLS); format: biochemical; conditions: for % FTI: inhibition of human FTase at 100 μM of tested compound, mean of two experiments
# Summary of the method: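 Partially purified recombinant FTase with Dansyl-GCVLS and farnesyl pyrophosphate in Tris/HCl pH 7.5 (DTT, MgCl2, ZnCl2, octyl-glucoside); fluorescence (ex 340/em 486 nm) read 15 min at 30 °C. IC50 by regression for compounds inhibiting >60% at 100 µM; kinetics varied FPP (Dns-GCVLS 2.5 μM) or peptide (FPP 10 μM).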
# [2] = system: panel of 60 human cancer cell lines; experiment: NCI 60 cell panel one dose screen (whole panel); format: cell-based; set-up: Delta (One Dose Mean Graph): unit not given here; conditions: 1.00E-5 Molar one dose; for Range (One Dose Mean Graph): in % (unit assumed); for Mean Growth Percent: mean over tested cell lines
# Protocol: (§1) 3.4. Cell Proliferation Assay
# Selected compounds were tested on a panel of 60 human cancer cell lines at the National Cancer Institute (NCI), Germantown, MD, USA. The cytotoxicity studies were conducted using a 48 h exposure protocol using the sulfo-rhodamine B assay. […]
# X. NCI One Dose Mean Graph of sulfides 4a(A -J) and 4b(A-J)
# The entire series of sulfides regrouping twenty synthesized FTI-candidates (4aA-J, 4bA-J) were selected by the National Cancer Institute (NCI) for evaluation of their antiproliferative activity against 60 cancer cell lines (see the followings twenty pages for full evaluation reports). […]
# inhibiting 36% of the NCI-H522 cells. Such difference between IC50 on human FTase in the nanomolar range and IC50 on cancer cell growth in the micromolar range is characteristic to potent FTIs and was reported previously on different series of compounds (see for example ref erence in the references part […]
# Of interest, none of the tested compounds at a high single dose (10 µM) in the full NCI 60 cell panel has shown a cytotoxic profile. […]
# inhibitory potential on FTase raise good hope for further investigation of these series as agents fighting
# MOLT-4 (Leukemia) = experiment: NCI one dose, MOLT-4; format: cell-based, human; conditions: MOLT-4, 1.00E-5 Molar one dose
# Protocol: as §1
# (§2) Selected compounds were tested on a panel of 60 human cancer cell lines at the National Cancer Institute (NCI), Germantown, MD, USA. The cytotoxicity studies were conducted using a 48 h exposure protocol using the sulfo-rhodamine B assay.
# [3] = system: HOP-62 (Non-Small Cell Lung Cancer); experiment: NCI one dose, HOP-62; format: cell-based, human; conditions: HOP-62, 1.00E-5 Molar one dose
# Protocol: as §1, §2
# [4] = system: NCI-H460 (Non-Small Cell Lung Cancer); experiment: NCI one dose, NCI-H460; format: cell-based, human; conditions: NCI-H460, 1.00E-5 Molar one dose
# Protocol: as §1, §2
# [5] = system: NCI-H522 non-small cell lung cancer cells; experiment: NCI cell proliferation, NCI-H522; format: cell-based, human; conditions: for inhibition at 10 µM: read-out: % Cancer cell growth Inhibition (NCI-H522); for Growth Percent: NCI-H522, 1.00E-5 Molar one dose
# Protocol: as §1, §2
# HCT-15 (Colon Cancer) = experiment: NCI one dose, HCT-15; format: cell-based, human; conditions: HCT-15, 1.00E-5 Molar one dose
# Protocol: as §1, §2
# HT29 (Colon Cancer) = experiment: NCI one dose, HT29; format: cell-based, human; conditions: HT29, 1.00E-5 Molar one dose
# Protocol: as §1, §2
# SF-539 (CNS Cancer) = experiment: NCI one dose, SF-539; format: cell-based, human; conditions: SF-539, 1.00E-5 Molar one dose
# Protocol: as §1, §2
# SNB-19 (CNS Cancer) = experiment: NCI one dose, SNB-19; format: cell-based, human; conditions: SNB-19, 1.00E-5 Molar one dose
# Protocol: as §1, §2
# SK-MEL-5 (Melanoma) = experiment: NCI one dose, SK-MEL-5; format: cell-based, human; conditions: SK-MEL-5, 1.00E-5 Molar one dose
# Protocol: as §1, §2
# UACC-257 melanoma cells = experiment: NCI one dose, UACC-257; format: cell-based, human; conditions: for Growth Percent: UACC-257, 1.00E-5 Molar one dose
# Protocol: as §1, §2
# UACC-62 (Melanoma) = experiment: NCI one dose, UACC-62; format: cell-based, human; conditions: UACC-62, 1.00E-5 Molar one dose
# Protocol: as §1, §2
# OVCAR-3 (Ovarian Cancer) = experiment: NCI one dose, OVCAR-3; format: cell-based, human; conditions: OVCAR-3, 1.00E-5 Molar one dose
# Protocol: as §1, §2
# OVCAR-5 (Ovarian Cancer) = experiment: NCI one dose, OVCAR-5; format: cell-based, human; conditions: OVCAR-5, 1.00E-5 Molar one dose
# Protocol: as §1, §2
# SK-OV-3 (Ovarian Cancer) = experiment: NCI one dose, SK-OV-3; format: cell-based, human; conditions: SK-OV-3, 1.00E-5 Molar one dose
# Protocol: as §1, §2
# ACHN (Renal Cancer) = experiment: NCI one dose, ACHN; format: cell-based, human; conditions: 1.00E-5 Molar one dose
# Protocol: as §1, §2
# SN12C (Renal Cancer) = experiment: NCI one dose, SN12C; format: cell-based, human; conditions: 1.00E-5 Molar one dose
# Protocol: as §1, §2
# TK-10 (Renal Cancer) = experiment: NCI one dose, TK-10; format: cell-based, human; conditions: TK-10, 1.00E-5 Molar one dose
# Protocol: as §1, §2
# BT-549 (Breast Cancer) = experiment: NCI one dose, BT-549; format: cell-based, human; conditions: BT-549, 1.00E-5 Molar one dose
# Protocol: as §1, §2
# [6] = system: MDA-MB-468 breast cancer cells; experiment: NCI one dose, MDA-MB-468; format: cell-based, human; conditions: for Growth Percent: MDA-MB-468, 1.00E-5 Molar one dose
# Protocol: as §1, §2
% FTI [1],SMILES,Delta (One Dose Mean Graph) [2],Range (One Dose Mean Graph) [2],Mean Growth Percent [2],Growth Percent (MOLT-4 (Leukemia)),Growth Percent [3],Growth Percent [4],"inhibition at 10 µM ([5]; Homo sapiens, NCI-H522)",Growth Percent [5],Growth Percent (HCT-15 (Colon Cancer)),Growth Percent (HT29 (Colon Cancer)),Growth Percent (SF-539 (CNS Cancer)),Growth Percent (SNB-19 (CNS Cancer)),Growth Percent (SK-MEL-5 (Melanoma)),Growth Percent (UACC-257 melanoma cells),Growth Percent (UACC-62 (Melanoma)),Growth Percent (OVCAR-3 (Ovarian Cancer)),Growth Percent (OVCAR-5 (Ovarian Cancer)),Growth Percent (SK-OV-3 (Ovarian Cancer)),Growth Percent (ACHN (Renal Cancer)),other results
67%,COc1ccc(CNC(=O)[C@@H]2CS[C@@]3(C)c4ccccc4C(=O)N23)cc1 [4bF],24.39,39.02,96.71%,76.38%,95.58%,110.45%,28%,72.32%,101.20%,84.10%,105.73%,99.83%,103.30%,87.83%,93.24%,108.61%,107.98%,106.02%,101.13%,IC50 ([1]; human FTase in vitro): 9.21 µM; Growth Percent (SN12C (Renal Cancer)): 101.88%; Growth Percent (TK-10 (Renal Cancer)): 99.99%; Growth Percent (BT-549 (Breast Cancer)): 106.11%; Growth Percent [6]: 86.72%
78%,COc1ccc(CNC(=O)[C@@H]2CS[C@@]3(C)c4ccccc4C(=O)N23)cc1OC [4bI],38.86,57.76,93.56%,76.47%,97.01%,103.23%,45%,54.70%,112.46%,77.04%,99.30%,96.85%,88.12%,73.35%,79.36%,110.84%,111.28%,103.22%,96.90%,"IC50 ([1]; human FTase in vitro): 0.0251 µM; GI50 ([5]; Homo sapiens, NCI-H522): 12.9 µM; inhibition at 10 µM (UACC-257 melanoma cells; Homo sapiens, UACC-257, 10 µM single dose, read-out: inhibition of growth of UACC-257 melanoma cells): 27%; Growth Percent (SN12C (Renal Cancer)): 96.04%; Growth Percent (TK-10 (Renal Cancer)): 95.68%; Growth Percent (BT-549 (Breast Cancer)): 110.79%; inhibition at 10 µM ([6]; Homo sapiens, MDA-MB-468, 10 µM single dose, read-out: inhibition of growth of MDA-MB-468 breast cancer cells): 30%; Growth Percent [6]: 70.36%"
74%,COc1cc(CNC(=O)[C@@H]2CS[C@@]3(C)c4ccccc4C(=O)N23)cc(OC)c1OC [4bJ],27.08,43.64,95.84%,81.24%,90.09%,105.78%,31%,68.76%,105.84%,82.56%,98.24%,93.01%,102.14%,73.76%,92.46%,112.40%,102.06%,103.62%,97.41%,IC50 ([1]; human FTase): 4.35 µM; IC50 ([1]; human FTase in vitro): 4.35 µM; Growth Percent (SN12C (Renal Cancer)): 91.58%; Growth Percent (TK-10 (Renal Cancer)): 102.44%; Growth Percent (BT-549 (Breast Cancer)): 107.75%; Growth Percent [6]: 89.65%

# More lines, now with the values behind:
SMILES,% FTI [1],Delta (One Dose Mean Graph) [2],Range (One Dose Mean Graph) [2],Mean Growth Percent [2],Growth Percent (MOLT-4 (Leukemia)),Growth Percent [3],Growth Percent [4],"inhibition at 10 µM ([5]; Homo sapiens, NCI-H522)",Growth Percent [5],Growth Percent (HCT-15 (Colon Cancer)),Growth Percent (HT29 (Colon Cancer)),Growth Percent (SF-539 (CNS Cancer)),Growth Percent (SNB-19 (CNS Cancer)),Growth Percent (SK-MEL-5 (Melanoma)),Growth Percent (UACC-257 melanoma cells),Growth Percent (UACC-62 (Melanoma)),Growth Percent (OVCAR-3 (Ovarian Cancer)),Growth Percent (OVCAR-5 (Ovarian Cancer)),Growth Percent (SK-OV-3 (Ovarian Cancer)),Growth Percent (ACHN (Renal Cancer)),other results
C[C@@]12SC[C@@H](C(=O)NCc3ccccc3Br)N1C(=O)c1ccccc12 [4bB],39%,17.49,36.16,93.03%,82.96%,99.61%,103.30%,22%,78.46%,95.65%,83.02%,90.78%,100.80%,90.98%,75.54%,82.12%,111.49%,93.99%,88.35%,106.88%,Growth Percent (SN12C (Renal Cancer)): 89.32%; Growth Percent (TK-10 (Renal Cancer)): 99.69%; Growth Percent (BT-549 (Breast Cancer)): 107.51%; Growth Percent [6]: 88.64%
C[C@@]12SC[C@@H](C(=O)NCc3ccccc3C(F)(F)F)N1C(=O)c1ccccc12 [4bC],58%,25.73,45.90,95.29%,74.60%,97.48%,105.02%,19%,80.71%,100.40%,79.15%,100.26%,103.86%,100.19%,73.01%,87.36%,115.46%,102.51%,100.95%,106.49%,Growth Percent (SN12C (Renal Cancer)): 94.74%; Growth Percent (TK-10 (Renal Cancer)): 92.04%; Growth Percent (BT-549 (Breast Cancer)): 104.97%; Growth Percent [6]: 101.77%
COc1cccc(CNC(=O)[C@@H]2CS[C@@]3(C)c4ccccc4C(=O)N23)c1 [4bE],56%,31.41,48.09,98.86%,85.50%,98.17%,104.83%,33%,67.45%,102.87%,89.19%,104.59%,102.99%,101.12%,81.73%,91.91%,115.54%,110.33%,101.46%,106.16%,Growth Percent (SN12C (Renal Cancer)): 101.62%; Growth Percent (TK-10 (Renal Cancer)): 95.45%; Growth Percent (BT-549 (Breast Cancer)): 110.64%; Growth Percent [6]: 93.38%
C[C@@]12SC[C@@H](C(=O)NCc3cccc(C(F)(F)F)c3)N1C(=O)c1ccccc12 [4bD],51%,25.48,41.72,94.41%,75.84%,90.69%,109.48%,31%,68.93%,95.74%,78.21%,99.59%,99.21%,101.35%,74.68%,87.82%,109.46%,104.21%,97.14%,95.88%,Growth Percent (SN12C (Renal Cancer)): 93.35%; Growth Percent (TK-10 (Renal Cancer)): 101.65%; Growth Percent (BT-549 (Breast Cancer)): 100.02%; Growth Percent [6]: 97.93%
